Patent US9332770B2, “Anti-listerial mixed culture and method for producing cheese” (CSK Food Enrichment B.V., priority 2011, dated 2016)

Columns and labels:
[1] = test system: Lactobacillus plantarum LMG P-26358; assay: growth profile in MRS broth substituted with various sugars; assay type: cell-based; details: for GT (generation time) / μmax (specific growth rate): 2% sugar in the MRS broth; for ability of Lb. plantarum LMG P-26358 to grow on the sugar: sugar acidification profiles
[2] = test system: L. innocua; assay: frequency of bacteriocin resistance development; assay type: cell-based, Listeria innocua; details: 2560 au/ml bacteriocin (purified preparation) and/or 320 au/ml nisin
Description: The frequency of development of resistance in L. innocua to 2560 au/ml of the bacteriocin produced by Lb. plantarum LMG P-26358 (purified preparation) was calculated at 1.13×10^−3. […] The resistant colonies were picked off and tested for their sensitivity to the bacteriocin produced by Lb. plantarum LMG P-26358.

Molecule | GT (generation time) [1] | μmax (specific growth rate) [1] | ability of Lb. plantarum LMG P-26358 to grow on the sugar [1] | frequency of development of resistance in L. innocua [2]
O=C[C@H](O)[C@@H](O)[C@H](O[C@@H]1O[C@H](CO)[C@@H](O)[C@H](O)[C@H]1O)[C@H](O)CO [Cellobiose] | 90 min | 0.2018 OD600 · hour^−1 | capable of growing | 
O=C(CO)[C@@H](O)[C@H](O)[C@H](O)CO [Fructose] | 104 min | 0.174 OD600 · hour^−1 | capable of growing | 
O=C[C@H](O)[C@@H](O)[C@@H](O)[C@H](O)CO [Galactose] | 123 min | 0.1473 OD600 · hour^−1 | capable of growing | 
OC[C@H]1O[C@@H](O[C@H]2[C@H](O)[C@@H](O)C(O)O[C@@H]2CO)[C@H](O)[C@@H](O)[C@H]1O (stereo partly shown) [Lactose] | 100 min | 0.1815 OD600 · hour^−1 | can grow efficiently | 
OC[C@H]1O[C@H](O[C@H]2[C@H](O)[C@@H](O)[C@H](O)O[C@@H]2CO)[C@H](O)[C@@H](O)[C@@H]1O [Maltose] | 79 min | 0.2277 OD600 · hour^−1 | capable of growing | 
OC[C@H]1O[C@H](OC[C@H]2O[C@H](O[C@]3(CO)O[C@H](CO)[C@@H](O)[C@@H]3O)[C@H](O)[C@@H](O)[C@@H]2O)[C@H](O)[C@@H](O)[C@H]1O [Raffinose] | 246 min | 0.0734 OD600 · hour^−1 | unable to metabolise | 
OC[C@H]1O[C@@](CO)(O[C@H]2O[C@H](CO)[C@@H](O)[C@H](O)[C@H]2O)[C@@H](O)[C@@H]1O [Sucrose] | 86 min | 0.2088 OD600 · hour^−1 | capable of growing | 
OC[C@H]1O[C@H](O[C@H]2O[C@H](CO)[C@@H](O)[C@H](O)[C@H]2O)[C@H](O)[C@@H](O)[C@@H]1O [Trehalose] | 92 min | 0.1963 OD600 · hour^−1 | capable of growing | 
nisin |  |  |  | 2.16×10^−2
